Columns and labels:
[1] = tested on: normal lung fibroblasts (MRC-5); assay: Antiproliferative assay (MTT reduction), MRC-5 fibroblasts; assay type: cell-based, human; set-up: key to antiproliferative activity in words, MRC-5: IC50 values > 100 µM were considered inactive; details: for IC50: Homo sapiens, MRC5, 72 h, MRC-5 normal lung fibroblasts, 3 days treatment, MTT, mean ± SD; for antiproliferative activity in words, MRC-5: MRC-5 fibroblasts
Procedure: (§1) All human cell lines used in this work were purchased from the American Type Culture Collection (ATCC, Manasas, VA, USA). […] All media were supplemented with 10% heat-inactivated FBS, 100 IU/mL penicillin and 100 µg/mL streptomycin. Cells were grown in a humidified incubator with 5% CO2 in air at 37 °C. For the antiproliferative assay, cells were plated at a density of 5 × 10^4 cells/mL. Cells were seeded in 96-well plates (100 µL/well). One day after seeding, cells were treated with medium containing the compounds at concentrations ranging from 0 up to 100 µM during 3 days. The compounds were dissolved in DMSO (1% final concentration) and complete medium. Untreated cells (medium containing 1% DMSO) were used as 100% viability controls. […] Each concentration was tested in sextuplicate and experiments were repeated 2 times. Cell viability was determined by means of the MTT reduction assay at the end of the incubation with the products. […] The software used was OriginPro 8.1 [23].

[2] = tested on: gastric epithelial adenocarcinoma (AGS) cells; assay: Antiproliferative assay (MTT reduction), AGS cells; assay type: cell-based, human; set-up: key to antiproliferative activity in words, AGS: IC50 values > 100 µM were considered inactive; details: for IC50: Homo sapiens, 72 h, AGS gastric adenocarcinoma cells, 3 days treatment, MTT, mean ± SD
Procedure: (§2) All human cell lines used in this work were purchased from the American Type Culture Collection (ATCC, Manasas, VA, USA). Normal lung MRC-5 fibroblasts (CCL-171), SK-MES-1 lung cancer cells (HTB-58) and J82 bladder carcinoma cells (HTB-1) were grown as monolayers in minimum essential Eagle medium (MEM) with Earles’s salts, 2 mM L-glutamine and 1.5 g/L sodium bicarbonate. Gastric adenocarcinoma AGS cells (CRL-1739) were grown as monolayers in Ham F-12 medium containing 1 mM L-glutamine and 1.5 g/L sodium bicarbonate. All media were supplemented with 10% heat-inactivated FBS, 100 IU/mL penicillin and 100 µg/mL streptomycin. Cells were grown in a humidified incubator with 5% CO2 in air at 37 °C. For the antiproliferative assay, cells were plated at a density of 5 × 10^4 cells/mL. Cells were seeded in 96-well plates (100 µL/well). One day after seeding, cells were treated with medium containing the compounds at concentrations ranging from 0 up to 100 µM during 3 days. The compounds were dissolved in DMSO (1% final concentration) and complete medium. Untreated cells (medium containing 1% DMSO) were used as 100% viability controls. […] Each concentration was tested in sextuplicate and experiments were repeated 2 times. Cell viability was determined by means of the MTT reduction assay at the end of the incubation with the products. The results were transformed to percentage of controls and the IC50 value was obtained adjusting the dose-response curve to a sigmoidal model. The software used was OriginPro 8.1 [23].

[3] = tested on: lung cancer (SK-MES-1) cells; assay: Antiproliferative assay (MTT reduction), SK-MES-1 cells; assay type: cell-based, human; details: for IC50: Homo sapiens, 72 h, SK-MES-1 lung cancer cells, 3 days treatment, MTT, mean ± SD; for antiproliferative activity in words, SK-MES-1: SK-MES-1 cells
Procedure: as §1

[4] = tested on: bladder carcinoma (J82) cells; assay: Antiproliferative assay (MTT reduction), J82 cells; assay type: cell-based, human; set-up: key to antiproliferative activity in words, J82: IC50 values > 100 µM were considered inactive; details: for IC50: Homo sapiens, 72 h, J82 bladder carcinoma cells, 3 days treatment, MTT, mean ± SD
Procedure: as §2

[5] = tested on: MCF-7, Hela and liver cancer 7721 cells; set-up: method as in PMID 21345546; details: range over MCF-7, Hela and liver cancer 7721 cells; read-out: IC50 values (cytotoxicity); cited from earlier work

| SMILES | IC50 [2] [µM] | IC50 [3] [µM] | IC50 [4] [µM] | IC50 [1] [µM] | antiproliferative activity in words, MRC-5 [1] | antiproliferative activity in words, SK-MES-1 [3] | antiproliferative activity in words, AGS ([2]; AGS cells) | antiproliferative activity in words, J82 ([4]; J82 cells) | IC50 [5] [µM] |
| --- | --- | --- | --- | --- | --- | --- | --- | --- | --- |
| CC(C)c1ccc2c(c1)CCC1[C@](C)(C(=O)OCCc3cn(-c4ccccc4)nn3)CCC[C@]21C (some centres unmarked) [Compound 2, 18-(2-(1-Phenyl-1H-1,2,3-triazol-4-yl)ethyl)-8,11,13-abietatrienoate] | 90.2 ± 5.4 | > 100 | 76.3 ± 5.9 | > 100 | inactive | inactive |  |  |  |
| CC(C)c1ccc2c(c1)CCC1[C@](C)(COC(=O)CCCCc3cn(Cc4ccccc4)nn3)CCC[C@]21C (some centres unmarked) [Compound 8, 18-(5-(1-Benzyl-1H-1,2,3-triazol-4-yl)pentanoyloxy)-8,11,13-abietatriene] | 35.9 ± 1.7 | 37 ± 2.6 | 26.8 ± 1.8 | > 100 | inactive |  |  |  |  |
| CC(C)c1ccc2c(c1)CCC1[C@](C)(COC(=O)CCc3cn(CSc4ccccc4)nn3)CCC[C@]21C (some centres unmarked) [Compound 9, 18-(3-(((1-Phenylthio)methyl)-1H-1,2,3-triazol-4-yl)propanoyloxy)-8,11,13-abietatriene] | 47.7 ± 2.9 | 43.6 ± 2.9 | 49.9 ± 2.9 | 73.3 ± 3.7 |  |  |  |  |  |
| CC(C)c1ccc2c(c1)CCC1[C@](C)(COC(=O)CCCCc3cn(CSc4ccccc4)nn3)CCC[C@]21C (some centres unmarked) [Compound 10] | 58.9 ± 3.4 | 42.7 ± 2.9 | 33.9 ± 1.7 | > 100 |  |  |  |  |  |
| CC(C)c1ccc2c(c1)CCC1[C@](C)(COC(=O)CCc3cn(-c4cccc(Cl)c4)nn3)CCC[C@]21C (some centres unmarked) [Compound 13, 18-(3-(1-(3-Chlorophenyl)-1H-1,2,3-triazol-4-yl)propanoyloxy)-8,11,13-abietatriene] | > 100 | > 100 | > 100 | > 100 |  |  |  |  |  |
| Cc1ccc(S(=O)(=O)n2cc(CCCCC(=O)OC[C@]3(C)CCC[C@]4(C)c5ccc(C(C)C)cc5CCC34)nn2)cc1 (some centres unmarked) [Compound 16, 18-(5-(1-(4-Toluenesulfonyl)-1H-1,2,3-triazol-4-yl)pentanoyloxy)-8,11,13-abietatriene] | 56.9 ± 3.3 | 74.2 ± 5.4 | 75 ± 6.1 | 68.8 ± 4.5 |  |  |  |  |  |
| COc1cc([C@@H]2c3cc4c(cc3[C@@H](O[C@@H]3O[C@@H]5CO[C@@H](C)O[C@H]5[C@H](O)[C@H]3O)[C@H]3COC(=O)[C@H]23)OCO4)cc(OC)c1O [Etoposide, reference compound] | 0.58 ± 0.02 |  | 3.49 ± 0.16 |  |  |  |  |  |  |
| CN(C)CCN1C(=O)c2cccc3cc(N)cc(c23)C1=O [amonafide] |  |  |  |  |  |  |  |  | 1.68 to 4.27 |

More lines, main results first:

| IC50 [2] [µM] | IC50 [3] [µM] | IC50 [4] [µM] | SMILES | IC50 [1] [µM] | antiproliferative activity in words, MRC-5 [1] | antiproliferative activity in words, SK-MES-1 [3] | antiproliferative activity in words, AGS ([2]; AGS cells) | antiproliferative activity in words, J82 ([4]; J82 cells) | IC50 [5] [µM] |
| --- | --- | --- | --- | --- | --- | --- | --- | --- | --- |
| 79.9 ± 4.8 | 77.3 ± 4.7 | 46.3 ± 2.3 | CC(C)c1ccc2c(c1)CCC1[C@](C)(C(=O)OCc3cn(-c4ccccc4)nn3)CCC[C@]21C (some centres unmarked) [Compound 1, 18-((1-Phenyl-1H-1,2,3-triazol-4-yl)methyl)-8,11,13-abietatrienoate] | 85.8 ± 4.6 |  |  |  |  |  |
| 94.4 ± 5.4 | > 100 | > 100 | CC(C)c1ccc2c(c1)CCC1[C@](C)(C(=O)OCc3cn(CSc4ccccc4)nn3)CCC[C@]21C (some centres unmarked) [Compound 3, 18-((((1-Phenylthio)methyl)-1H-1,2,3-triazol-4-yl)methyl)-8,11,13-abietatrienoate] | > 100 | inactive | inactive |  |  |  |
| 66 ± 4.4 | 28.9 ± 2.1 | 28.1 ± 1.7 | CC(C)c1ccc2c(c1)CCC1[C@](C)(C(=O)OCCc3cn(CSc4ccccc4)nn3)CCC[C@]21C (some centres unmarked) [Compound 4, 18-(2-(((1-Phenylthio)methyl)-1H-1,2,3-triazol-4-yl)ethyl)-8,11,13-abietatrienoate] | 50.2 ± 3.1 |  |  |  |  |  |
| 44.5 ± 1.9 | 6.1 ± 0.3 | 83.3 ± 3.3 | CC(C)c1ccc2c(c1)CCC1[C@](C)(COC(=O)CCc3cn(-c4ccccc4)nn3)CCC[C@]21C (some centres unmarked) [Compound 5, 18-(3-(1-Phenyl-1H-1,2,3-triazol-4-yl)propanoyloxy)-8,11,13-abietatriene] | 17.1 ± 0.6 |  |  |  |  |  |
| > 100 | > 100 | > 100 | CC(C)c1ccc2c(c1)CCC1[C@](C)(COC(=O)CCCCc3cn(-c4ccccc4)nn3)CCC[C@]21C (some centres unmarked) [Compound 6, 18-(5-(1-Phenyl-1H-1,2,3-triazol-4-yl)pentanoyloxy)-8,11,13-abietatriene] | > 100 | inactive | inactive | inactive | inactive |  |
| 36.7 ± 1.5 | 39.7 ± 2.7 | 25.6 ± 1.9 | CC(C)c1ccc2c(c1)CCC1[C@](C)(COC(=O)CCc3cn(Cc4ccccc4)nn3)CCC[C@]21C (some centres unmarked) [Compound 7, 18-(3-(1-Benzyl-1H-1,2,3-triazol-4-yl)propanoyloxy)-8,11,13-abietatriene] | > 100 | inactive |  |  |  |  |
| > 100 | > 100 | > 100 | COc1ccc(-n2cc(CCC(=O)OC[C@]3(C)CCC[C@]4(C)c5ccc(C(C)C)cc5CCC34)nn2)cc1 (some centres unmarked) [Compound 11, 18-(3-(1-(4-Anisidyl)-1H-1,2,3-triazol-4-yl)propanoyloxy)-8,11,13-abietatriene] | > 100 |  |  |  |  |  |
| > 100 | > 100 | > 100 | COc1ccc(-n2cc(CCCCC(=O)OC[C@]3(C)CCC[C@]4(C)c5ccc(C(C)C)cc5CCC34)nn2)cc1 (some centres unmarked) [Compound 12, 18-(5-(1-(4-Anisidyl)-1H-1,2,3-triazol-4-yl)pentanoyloxy)-8,11,13-abietatriene] | > 100 |  |  |  |  |  |
| > 100 | > 100 | > 100 | CC(C)c1ccc2c(c1)CCC1[C@](C)(COC(=O)CCCCc3cn(-c4cccc(Cl)c4)nn3)CCC[C@]21C (some centres unmarked) [Compound 14, 18-(5-(1-(3-Chlorophenyl)-1H-1,2,3-triazol-4-yl)pentanoyloxy)-8,11,13-abietatriene] | > 100 |  |  |  |  |  |
| 74.9 ± 3.7 | 84.4 ± 5.1 | > 100 | Cc1ccc(S(=O)(=O)n2cc(CCC(=O)OC[C@]3(C)CCC[C@]4(C)c5ccc(C(C)C)cc5CCC34)nn2)cc1 (some centres unmarked) [Compound 15, 18-(3-(1-(4-Toluenesulfonyl)-1H-1,2,3-triazol-4-yl)propanoyloxy)-8,11,13-abietatriene] | 82.9 ± 4.5 |  |  |  |  |  |

Reference: PMC6271890, “Synthesis and Antiproliferative Activity of Some Novel Triazole Derivatives from Dehydroabietic Acid” (Molecules, 2014)
